Experimental findings from PubChem BioAssay (NCI) are described below.

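Briefly, cells in 96-well plates were exposed to five compound concentrations for 48 h, and endpoints were estimated by linear interpolation. At the GI50, growth is halved. Definition used: TGI = concentration required for complete inhibition of growth.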

Some test systems named below: DU-145 prostate; OVCAR-3 ovarian; OVCAR-8 ovarian; NCI-H460 lung; SNB-75 CNS; HCT-116 colon; ACHN renal; MALME-3M melanoma; SW-620 colon; SN12C renal.
Assay in all cases: inhibition of tumour cell growth, NCI panel, 48 h

Consider `CCN(Cc1ccccc1)c1ccc(CO)c(Cl)c1`, for which the GI50 in the test with DU-145 prostate is 22.5 µM; in the test with OVCAR-3 ovarian it was 0.658 µM; with OVCAR-8 ovarian it was 12.1 µM; with NCI-H460 lung, 0.327 µM; in the test on SNB-75 CNS it was 13.6 µM; in the test on HCT-116 colon, 0.11 µM. The GI50 in the test on ACHN renal was 30.2 µM; with MALME-3M melanoma, 28.6 µM; with SW-620 colon, 1.27 µM; in the test with SN12C renal it was 19.8 µM. Moreover, the TGI was > 59.4 µM in the test on DU-145 prostate; 3.62 µM in the test with OVCAR-3 ovarian; > 100 µM in the test with OVCAR-8 ovarian; 13.9 µM in the test with NCI-H460 lung; 69.7 µM in the test with SNB-75 CNS; 10.2 µM with HCT-116 colon. Besides, the TGI in the test with ACHN renal was > 100 µM; with MALME-3M melanoma, > 82.6 µM; in the test with SW-620 colon it was > 100 µM; in the test with SN12C renal, > 100 µM.
Consider `COc1ccc(-c2cc(-c3cccn3C)c(C#N)c(=O)[nH]2)cc1OC`, for which the GI50 with DU-145 prostate was > 100 µM; in the test on OVCAR-3 ovarian it was > 100 µM; in the test on OVCAR-8 ovarian, > 100 µM; in the test with NCI-H460 lung it was > 100 µM; with SNB-75 CNS it was 24.2 µM; in the test with HCT-116 colon, > 100 µM. The GI50 in the test on ACHN renal, in the test on MALME-3M melanoma, in the test on SW-620 colon and in the test on SN12C renal was > 100 µM each time. Moreover, the TGI with DU-145 prostate, in the test with OVCAR-3 ovarian, in the test on OVCAR-8 ovarian, with NCI-H460 lung, in the test with SNB-75 CNS and in the test on HCT-116 colon was > 100 µM each time. Further, the TGI in the test with ACHN renal, in the test with MALME-3M melanoma, in the test on SW-620 colon and with SN12C renal was > 100 µM each time.
In the case of `COc1ccc(-c2cc(-c3ccc(Cl)cc3)nc(SCCCC(=O)NO)n2)cc1`, the GI50 is 0.826 µM with DU-145 prostate; 0.406 µM in the test on OVCAR-3 ovarian; 0.427 µM in the test with OVCAR-8 ovarian; 0.495 µM with NCI-H460 lung; 1.22 µM with SNB-75 CNS; 0.563 µM in the test with HCT-116 colon. Besides, the GI50 was 0.379 µM in the test on ACHN renal, 1.86 µM in the test on MALME-3M melanoma, 0.553 µM in the test on SW-620 colon and 0.654 µM in the test with SN12C renal. Further, the TGI is 6 µM with DU-145 prostate; 2.11 µM in the test with OVCAR-3 ovarian; > 100 µM with OVCAR-8 ovarian; 3.9 µM with NCI-H460 lung; 5.61 µM in the test with SNB-75 CNS; > 100 µM with HCT-116 colon. The TGI with ACHN renal is 1.88 µM; in the test on MALME-3M melanoma, 7.01 µM; with SW-620 colon it was 3.29 µM; in the test with SN12C renal it was > 20.5 µM.
Turning to `C/C(=N\Nc1cc(C)c2ccccc2n1)c1ccccn1`, the GI50 in the test with DU-145 prostate is 0.107 µM; in the test on OVCAR-3 ovarian, < 0.0194 µM; in the test on OVCAR-8 ovarian it was 0.0535 µM; in the test with NCI-H460 lung it was < 0.0387 µM; in the test with SNB-75 CNS, 0.212 µM; with HCT-116 colon, < 0.0401 µM. Moreover, the GI50 was < 0.0374 µM in the test on ACHN renal, 0.155 µM in the test on MALME-3M melanoma and 0.0762 µM in the test on SN12C renal. Moreover, the TGI in the test with DU-145 prostate is 12.4 µM; in the test on OVCAR-3 ovarian, 3.51 µM; with OVCAR-8 ovarian, 1.35 µM; in the test with NCI-H460 lung, 1.17 µM; with SNB-75 CNS it was 5.4 µM; in the test on HCT-116 colon, 1.29 µM. Besides, the TGI is 1.14 µM in the test with ACHN renal, 1.49 µM with MALME-3M melanoma, 1.98 µM with SW-620 colon and 7.57 µM in the test on SN12C renal.
With `Nc1c2c(c(O)c3c1=C(CO)C=N3)=NCCS2`, the GI50 with DU-145 prostate was 0.127 µM; in the test on OVCAR-3 ovarian, 0.164 µM; in the test on OVCAR-8 ovarian, 0.307 µM; with NCI-H460 lung, 0.0389 µM; in the test with SNB-75 CNS, 0.168 µM; with HCT-116 colon, 0.223 µM. Further, the GI50 in the test on ACHN renal was 0.269 µM; in the test on MALME-3M melanoma, 0.0347 µM; in the test with SW-620 colon, 0.202 µM; with SN12C renal it was 0.167 µM. In addition, the TGI stood at 0.253 µM with DU-145 prostate; 0.35 µM with OVCAR-3 ovarian; 0.88 µM with OVCAR-8 ovarian; 0.154 µM in the test on NCI-H460 lung; 0.306 µM in the test on SNB-75 CNS; 0.524 µM with HCT-116 colon. For the same compound, the TGI with ACHN renal was found to be 0.844 µM; with MALME-3M melanoma, 0.108 µM; with SW-620 colon, 0.391 µM; in the test on SN12C renal, 0.332 µM.
Regarding `CCC(=O)Nc1ccccc1C#C/C=C\C#Cc1ccccc1SC`, the GI50 in the test with DU-145 prostate was 40.5 µM; with OVCAR-3 ovarian, 8.87 µM; with OVCAR-8 ovarian, 12.3 µM; in the test with NCI-H460 lung, 3.4 µM; in the test on SNB-75 CNS, 4.76 µM; with HCT-116 colon, 5.61 µM. In addition, the GI50 in the test with ACHN renal was 30.1 µM; in the test on MALME-3M melanoma, 35.1 µM; with SW-620 colon, 4.62 µM; with SN12C renal it was 26.7 µM. The TGI in the test with DU-145 prostate is > 100 µM; in the test with OVCAR-3 ovarian it was 80.6 µM; in the test with OVCAR-8 ovarian, > 100 µM; with NCI-H460 lung it was > 100 µM; with SNB-75 CNS, > 100 µM; in the test on HCT-116 colon it was > 100 µM. The TGI in the test on ACHN renal, in the test with MALME-3M melanoma, in the test on SW-620 colon and in the test with SN12C renal was > 100 µM throughout.
As for `CCCN(CCC)c1ccc(/C=C/c2ccc3cc(OCC)ccc3n2)cc1`, the GI50 with DU-145 prostate is > 100 µM; in the test on OVCAR-3 ovarian, > 100 µM; with OVCAR-8 ovarian, 99.2 µM; with NCI-H460 lung, 63.2 µM; in the test on SNB-75 CNS, 54.7 µM; in the test with HCT-116 colon it was 31.6 µM. Besides, the GI50 in the test with ACHN renal was 63.4 µM; with MALME-3M melanoma, > 100 µM; in the test with SW-620 colon, > 100 µM; in the test on SN12C renal it was > 100 µM. In addition, the TGI in the test on DU-145 prostate, in the test with OVCAR-3 ovarian, with OVCAR-8 ovarian, in the test with NCI-H460 lung, with SNB-75 CNS and with HCT-116 colon was > 100 µM throughout. In addition, the TGI with ACHN renal, with MALME-3M melanoma, in the test on SW-620 colon and with SN12C renal was > 100 µM in each case.
